Each structure is given as a SMILES string.

The subject of one series is Salmonella typhimurium. The series can be described thus: Mutagenicity in Salmonella typhimurium TA100. The class given is toxicity, organism-based. Conditions: salmonella enterica subsp. enterica serovar typhimurium.
Series [1] is described as follows: Drug conversion assessed as formation of oxazole derivatives in presence of Zn/HOAc. It is filed as physicochemical.

Regarding `COc1cccc2c1cc([N+](=O)[O-])c1c(C(=O)O)cc3c(c12)OCO3` [ARISTOLOCHIC ACID], the Activity result in the series on Salmonella typhimurium was “Toxic”. Further, in series [1], the Drug metabolism entry is given as “Active”.
